Target: T1, Axl (Homo sapiens, UniProt P30530)
T1 construct: endogenous in cells; host or cells: HeLa cells
T1 sequence (P30530 26-894): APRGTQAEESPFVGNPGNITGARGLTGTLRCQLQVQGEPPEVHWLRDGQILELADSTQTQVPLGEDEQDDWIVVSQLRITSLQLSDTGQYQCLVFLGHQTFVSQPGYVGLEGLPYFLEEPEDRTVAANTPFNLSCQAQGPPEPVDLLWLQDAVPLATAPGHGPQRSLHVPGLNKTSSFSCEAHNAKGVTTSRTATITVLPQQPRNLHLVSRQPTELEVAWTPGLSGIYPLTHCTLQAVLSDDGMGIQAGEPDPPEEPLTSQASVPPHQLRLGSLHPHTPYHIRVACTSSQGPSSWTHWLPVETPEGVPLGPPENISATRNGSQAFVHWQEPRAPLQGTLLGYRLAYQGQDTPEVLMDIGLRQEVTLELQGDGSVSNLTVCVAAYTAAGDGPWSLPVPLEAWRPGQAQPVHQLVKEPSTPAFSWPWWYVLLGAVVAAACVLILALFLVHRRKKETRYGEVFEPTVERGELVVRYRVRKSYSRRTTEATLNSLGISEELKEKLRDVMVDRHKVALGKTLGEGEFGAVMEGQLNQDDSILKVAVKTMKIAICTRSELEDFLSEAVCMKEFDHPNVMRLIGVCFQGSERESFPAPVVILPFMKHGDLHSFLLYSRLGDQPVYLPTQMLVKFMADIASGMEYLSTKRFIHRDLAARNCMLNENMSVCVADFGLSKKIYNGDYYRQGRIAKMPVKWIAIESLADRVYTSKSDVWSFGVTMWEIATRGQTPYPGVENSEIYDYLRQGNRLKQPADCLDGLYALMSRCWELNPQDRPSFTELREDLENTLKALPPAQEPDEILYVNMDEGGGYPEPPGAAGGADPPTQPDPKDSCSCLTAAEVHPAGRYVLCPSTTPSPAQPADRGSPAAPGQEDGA
Assay: Phospho-Akt in-cell Western assay (inhibition of Axl activity)
Format: cell-based
Summary of the method: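 HeLa cells on poly-L-lysine, starved 24 h in 0.5% FCS DMEM with Axl/Fc 500 ng/mL, pre-treated with compound 1 h at 37° C. Axl stimulated 5 min by anti-Axl/anti-mouse antibody cross-linking. Fixed cells probed with anti-phospho-Akt and HRP secondary, chemiluminescence read.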

[1] = inhibition of Axl activity, Table 1
[2] = Table 7, Hela cells, Axl antibody cross-linking stimulation, phospho-Akt chemiluminescence
[3] = Table 5, Hela cells, Axl antibody cross-linking stimulation, phospho-Akt chemiluminescence
[4] = inhibition of Axl activity, phospho-Akt in-cell Western assay, Table 1
[5] = Table 4, Hela cells, Axl antibody cross-linking stimulation, phospho-Akt chemiluminescence
[6] = Table 3, Hela cells, Axl antibody cross-linking stimulation, phospho-Akt chemiluminescence

For Nc1nc(Nc2ccc3c(c2)OCCO3)nn1C(=O)c1ccccc1F [compound 99, 5-amino-3-(1,4-benzodioxan-6-yl)amino-1-(2-(fluoro)phenyl)carbonyl-1H-1,2,4-triazole], the IC50 [1] was 10000 to 20000 nM.

In the case of CN(C)c1ccc(C(=O)n2nc(N)nc2NC2CCN(S(C)(=O)=O)CC2)cc1 [compound 396, 3-amino-1-(4-(dimethylamino)phenyl)carbonyl-5-(1-methylsulfonylpiperidin-4-yl)amino-1H-1,2,4-triazole], the IC50 (Table 6, Hela cells, Axl antibody cross-linking stimulation, phospho-Akt chemiluminescence) is reported as over 20000 nM.

COc1ccc(NC(=O)n2nc(Nc3ccc(OCCN4CCCCC4)cc3)nc2N)cc1OC [compound 43, 5-amino-N-(3,4-(dimethoxy)phenyl)-3-[4-[2-(piperidin-1-yl)ethoxy]phenylamino]-1H-1,2,4-triazole-1-carboxamide] was tested, and the IC50 [2] was 1000 to 10000 nM.

With Cc1cccc(C(=O)n2nc(Nc3ccc4snc(C)c4c3)nc2N)c1 [compound 260, 5-amino-3-(3-methyl-1,2-benzisothiazol-5-yl)amino-1-(3-methylphenyl)carbonyl-1H-1,2,4-triazole] the IC50 [3] was over 20000 nM.

Nc1nc(Nc2ccccc2)nn1C(=O)c1cccc(N2CCOCC2)c1 [compound 336, 5-amino-1-(3-(morpholin-4-yl)phenyl)carbonyl-3-(phenylamino)-1H-1,2,4-triazole] gave an IC50 [4] of 10000 to 20000 nM.

For CN1CCN(c2ccc(Nc3nc(N)n(C(=O)c4cccc(OC(C)(C)C)c4)n3)cc2)CC1 [compound 358, 5-amino-1-(3-(tert-butoxy)phenyl)carbonyl-3-[4-(4-methylpiperazin-1-yl)phenylamino]-1H-1,2,4-triazole], the IC50 [4] was under 1000 nM.

With COc1ccc(NC(=O)n2nc(Nc3ccc(OCCN4CCCCC4)cc3)nc2N)cc1 [compound 40, 5-amino-N-(4-(methoxy)phenyl)-3-[4-[2-(piperidin-1-yl)ethoxy]phenylamino]-1H-1,2,4-triazole-1-carboxamide] the IC50 [2] was 1000 to 10000 nM.

Work on Cc1cccc(C(=O)n2nc(Nc3ccc4occc4c3)nc2N)c1 [compound 229, 5-amino-3-(benzofuran-5-yl)amino-1-(3-methylphenyl)carbonyl-1H-1,2,4-triazole] yielded an IC50 [3] of 1000 to 10000 nM.

CC(C)(C)Oc1ccc(C(=O)n2nc(Nc3ccc(OCCN4CCCCCC4)cc3)nc2N)cc1 [compound 322, 5-amino-1-(4-(tert-butoxy)phenyl)carbonyl-3-[4-[2-(azepan-1-yl)ethoxy]phenylamino]-1H-1,2,4-triazole] gave an IC50 [4] of under 1000 nM.

Nc1nc(Nc2ccc(OCCN3CCCC3)c(Cl)c2)nn1C(=O)c1cc(Cl)cc(Cl)c1 [compound 402, 5-amino-3-[3-chloro-4-[2-(pyrrolidin-1-yl)ethoxy]phenylamino]-1-(3,5-dichlorophenyl)carbonyl-1H-1,2,4-triazole] showed an IC50 [4] of over 20000 nM.

Compound Nc1nc(Nc2ccc(OCCN3CCCC3)cc2)n(C(=O)c2cc3ccccc3s2)n1 [compound 368, 3-amino-1-(benzo[b]thiophen-2-yl)carbonyl-5-[4-[2-(pyrrolidin-1-yl)ethoxy]phenylamino]-1H-1,2,4-triazole] has an IC50 [5] of 1000 to 10000 nM.

CC(C)(C)Oc1ccc(C(=O)n2nc(Nc3cccc(-c4cnco4)c3)nc2N)cc1 [compound 264, 5-amino-1-(4-(tert-butoxy)phenyl)carbonyl-3-[3-(1,3-oxazol-5-yl)phenylamino]-1H-1,2,4-triazole] showed an IC50 [4] of 1000 to 10000 nM.

Compound CCOc1ccc(C(=O)n2nc(Nc3ccc4c(c3)OCCO4)nc2N)cc1 [compound 114] has an IC50 [1] of 1000 to 10000 nM.

With CN1CCN(c2ccc(Nc3nc(N)n(C(=O)c4ccc(N(C)C)cc4)n3)cc2)CC1 [compound 361, 5-amino-1-(4-(dimethylamino)phenyl)carbonyl-3-[4-(4-methylpiperazin-1-yl)phenylamino]-1H-1,2,4-triazole] the IC50 [4] was under 1000 nM.

With CC(C)Oc1ccc(C(=O)n2nc(Nc3ccc(N4CCOCC4)cc3)nc2N)cc1 [compound 48, 5-amino-1-(4-(iso-propoxy)phenyl)carbonyl-3-(4-(morpholin-4-yl)phenylamino]-1H-1,2,4-triazole] the IC50 [1] was under 1000 nM.

In the case of Nc1nc(Nc2ccc(OCCN3CCCC3)c(F)c2)nn1C(=O)c1ccc2cc[nH]c2c1 [compound 309, 5-amino-1-(1H-indol-6-yl)carbonyl-3-[3-fluoro-4-[2-(pyrrolidin-1-yl)ethoxy]phenylamino]-1H-1,2,4-triazole], the IC50 [6] is reported as under 1000 nM.

Nc1nc(Nc2ccc3c(c2)OCCO3)nn1C(=O)c1ccc(O)cc1 [compound 162, 5-amino-3-(1,4-benzodioxan-6-yl)amino-1-(4-(hydroxy)phenyl)carbonyl-1H-1,2,4-triazole] was tested, and the IC50 [1] was 1000 to 10000 nM.

Compound CC(C)Oc1ccc(C(=O)n2nc(Nc3ccc(OCCCN4CCCC4)cc3)nc2N)cc1 [compound #10, 5-Amino-1-(4-(iso-propoxy)phenyl)carbonyl-3-[4-[3-(pyrrolidin-1-yl)propoxy]phenylamino]-1H-1,2,4-triazole] has an IC50 [4] of under 1000 nM.

Compound Nc1nc(Nc2ccc(OCCN3CC[C@H](F)C3)cc2)n(C(=O)c2ccc3c(c2)OCCO3)n1 [compound 387, 3-amino-1-(1,4-benzodioxan-6-yl)carbonyl-5-[4-[2-((S)-3-fluoropyrrolidin-1-yl)ethoxy]phenylamino]-1H-1,2,4-triazole] has an IC50 [5] of under 1000 nM.

Compound COc1cccc(C(=O)n2nc(Nc3ccc4c(c3)OCCO4)nc2N)c1 [compound 98, 5-amino-3-(1,4-benzodioxan-6-yl)amino-1-(3-(methoxy)phenyl)carbonyl-1H-1,2,4-triazole] has an IC50 [1] of 1000 to 10000 nM.

NC(=O)C1C2C=CC(C2)C1Nc1nc(N)nn1C(=O)c1ccc2cc[nH]c2c1 (stereo not drawn) [compound 355, 3-amino-1-(1H-indol-6-yl)carbonyl-5-[(3-(aminocarbonyl)bicyclo[2.2.1]hept-5-en-2-yl)amino]-1H-1,2,4-triazole] was tested, and the IC50 (Table 10, Hela cells, Axl antibody cross-linking stimulation, phospho-Akt chemiluminescence) was over 20000 nM.

With CC(C)Oc1ccc(C(=O)n2nc(Nc3ccc(N4CCN(C)CC4)cc3)nc2N)cc1 [compound 359, 5-amino-1-(4-(iso-propoxy)phenyl)carbonyl-3-[4-(4-methylpiperazin-1-yl)phenylamino]-1H-1,2,4-triazole] the IC50 [4] was under 1000 nM.

With CN(C)c1ccc(C(=O)n2nc(NC3CCN(S(C)(=O)=O)CC3)nc2N)cc1 [compound 395, 5-amino-1-(4-(dimethylamino)phenyl)carbonyl-3-(1-methylsulfonylpiperidin-4-yl)amino-1H-1,2,4-triazole] the IC50 [3] was over 20000 nM.

Compound CC(C)Oc1ccc(C(=O)n2nc(Nc3ccc(OCCN4CCCC4)c(F)c3)nc2N)cc1 [compound 307, 5-amino-1-(4-(iso-propoxy)phenyl)carbonyl-3-[3-fluoro-4-[2-(pyrrolidin-1-yl)ethoxy]phenylamino]-1H-1,2,4-triazole] has an IC50 [4] of under 1000 nM.

Nc1nc(Nc2ccc(OCCN3CCCCCC3)cc2)nn1C(=O)c1ccc2cc[nH]c2c1 [compound 323, 5-amino-1-(1H-indol-6-yl)carbonyl-3-[4-[2-(azepan-1-yl)ethoxy]phenylamino]-1H-1,2,4-triazole] was tested, and the IC50 [6] was under 1000 nM.

Work on Nc1nc(Nc2ccc(OCCN3CCCC3)cc2)nn1C(=O)c1ccc(OC(F)(F)F)cc1 [compound #23, 5-Amino-3-[4-[2-(pyrrolidin-1-yl)ethoxy]phenylamino]-1-(4-(trifluoromethoxy)phenyl)carbonyl-1H-1,2,4-triazole] yielded an IC50 [4] of under 1000 nM.

In the case of CC(C)Oc1ccc(C(=O)n2nc(Nc3ccc(N4CCCCC4)cc3)nc2N)cc1 [compound #26, 5-Amino-1-(4-(iso-propoxy)phenyl)carbonyl-3-[4-(piperidin-1-yl)phenylamino]-1H-1,2,4-triazole], the IC50 [4] is reported as 1000 to 10000 nM.

Source: patent US8389557B2, “Triazole derivatives useful as Axl inhibitors” (Rigel Pharmaceuticals, Inc., priority 2005, dated 2013)
